The subject of assay [1] is KMS28PE and ARP1 cells, bortezomib-resistant (vel-R) and bortezomib-sensitive. Put plainly: KP372-1 treatment of bortezomib-resistant and bortezomib-sensitive myeloma cell lines. The assay is classed as cell-based. As for the experimental part:
FIGS. 9a-9d are a series of graphs showing the treatment with KP372-1 overcomes drug-resistance in cancer cells. The myeloma cell lines KMS28PE (A & B) and ARP1 (C & D) including both bortezomib-sensitive and bortezomib-resistant (vel-R) were treated with KP372-1 at concentrations of 1 μM and 5 μM for 5 days.
To determine whether the NEK2 inhibitor KP372-1 can overcome drug resistance in KMS28PE- and ARP1-bortezomib resistant myeloma cell lines, we treated with KP372-1 at concentrations of 1 μM and 5 μM.

Assay [2] deals with NEK2 expression in MM, lung cancer and breast cancer cells. Put plainly: Inhibition of NEK2 expression in cancer cell lines (western blots). The settings on record: especially NEK2 over-expressed. The assay is classed as cell-based. Here is the method: FIG. 7a is a graph showing the results of screening a Kinase Inhibitor Library.
Western Blots. Western blots were performed to examine the protein levels in MM cells as previously described in Xiong, W., et al. Blood 112, 4235-4246 (2008) and Zhan, F., et al. Blood 109, 4995-5001 (2007). NEK2 antibodies were purchased from BD Biosciences Pharmingen (San Jose, Calif.); and all other primary antibodies were purchased from Cell Signaling Technology (Beverly, Mass.). β-actin was used to normalize the amount of protein in each sample.
(Immunoblotting shows a protein as a band on a membrane.)

Assay [3] relates to NEK2-transfected OCI-MY5, H1299 and MCF7 cells and EV control cells. Put plainly: Cytotoxic effects of KP372-1 on NEK2-overexpressing cell lines. The assay is classed as cell-based. The note with it: 5 μM, 5 days. Here is the method: Cell proliferation assay. Briefly, cancer cells transfected with NEK2 cDNA or NEK2 shRNA and their relative controls of empty vector or Scrambled shRNA were seeded in 12-well plates at 0.2×10^6 per well. All tests were set in triplicate or quadruplicate. Cultured cells were counted with a hemocytometer to evaluate cellular proliferation, and dead cells were determined by trypan blue staining, from which dead-cell fraction was calculated. Cell proliferation assays were done at various time points for at least one week after infection or addition doxycycline one day.
We then determined the cytotoxic effects of this compound KP372-1 on the NEK2-overexpressing myeloma cell lines. Cultures of cell lines transfected with a vector for overexpression of NEK2 (myeloma OCI-MY5, a lung cancer cell line H1299, and a breast cancer cell line MCF7) were treated with 5 μM KP372-1 for 5 days. Cell proliferation and cell death were evaluated. Empty vector (EV)-transfected cancer cells with or without treatment were used as controls.

In assay [4] the test system is 5TGM1 multiple myeloma cells. Put plainly: Efficacy of KP372-1 in a mouse model of multiple myeloma. The note with it: for tumor burden (tumor volumes): FIG. 10b. Format: in vivo, C57BL/KaLwRij mice. As for the experimental part: Efficacy of KP372-1 in a mouse model of multiple myeloma. C57BL/KaLwRij mice (n=5 in each group) were injected with 1×10^6 5TGM1 cells through their tail vein. Seven days following tumor inoculation, tumor-bearing mice were treated with KP372-1, bortezomib or a combination of KP372-1 with bortezomib.
KP372-1 (NI-2) was used to treat 8 mice in each study group including four groups with single agent or combination with bortezomib (velcade). 1×10^6 5TGM1 multiple myeloma cells (in 100 μL PBS) were injected into each mouse through the tail vein and tumors were allowed to grow for 1 week. Treatment with bortezomib (1 mg/kg, 2 times/week, sc), NI-2 (0.8 mg/kg 3 times/week, sc), and the combination of KP372-1 (NI-2) with bortezomib (velcade) was performed 1 week after injection.
We also developed a bortezomib-resistant 5TGM1 line (5TGM1-DR) using a stepwise increase of the bortezomib concentration in the cultures. […] We examined the effects of KP372-1 treatment on the growth of 5TGM1 myeloma mouse. KP372-1 was given to 8 mice in each of the five groups, including single agent or combination treatment with bortezomib: 5TGM1-WT, 5TGM1-DR, 5TGM1-DR+KP372-1 (0.8 mg/kg, 3 times/week, s.c), 5TGM1-DR+bortezomib (1 mg/kg, 2 times/week, s.c), 5TGM1-DR+bortezomib+KP372-1.

The target of assay [5] is Purified recombinant NEK2 kinase protein (Homo sapiens, UniProt P51955). The note with it: read-out: IC50 (NEK2 kinase activity, titration assays); titration of screening hits. As for the experimental part:
NEK2 kinase activity assay. Purified recombinant NEK2 kinase protein (Cell Signaling Technology, Beverley, Mass.), was added to 96 well plates in the appropriate reaction buffer. Compounds were added to each well to a final concentration of 5 μM. Reaction mixtures were incubated for 15 minutes. The Kinase-Glo Luminescent Kinase Assay kit (Promega, Madison, Wis.) was used to determine the remaining ATP, which is inversely related to kinase activity.
By NEK2 kinase activity assay, we screened a Kinase Inhibitor Library from Calbiochem Inc. (San Diego, Calif.).

The test system of assay [6] is ARP1 cells. Put plainly: Bortezomib treatment of bortezomib-resistant and parental ARP1 cells. Format: cell-based. The source says: (§1) To test the role of NEK2 in promoting cell growth, we over-expressed NEK2 in normal fibroblasts BJ, the MM cell lines ARP1, KMS28PE, and OCI-MY5, the lung cancer cell line H1299, and breast cancer cell line MDA231 by lentivirus-mediated NEK2-cDNA transfection (FIG. 2a). […] We subsequently examined the role of NEK2 in myeloma drug-resistance. We developed 2 bortezomib-resistant MM cell lines, RPMI 8226 and ARP1, by a stepwise increase of the bortezomib concentration in cultures.

Assay [7] concerns RPMI8226 cells. The assay is described as follows: Bortezomib treatment of bortezomib-resistant and parental RPMI8226 cells. The assay is classed as cell-based. The settings on record: Homo sapiens.
Source text: as §1

In assay [8] the test system is NEK2-transfected ARP1, KMS28PE, H1299, MCF7, and MDA231 cells. The assay is described as follows: Treatment of NEK2-overexpressing cancer cells with chemotherapeutic drugs. Format: cell-based. The settings on record: 48 hours; for growth inhibition in NEK2-transfected cells compared with EV-transfected controls: P<0.05; for cell death in NEK2-transfected cells compared with EV-transfected controls: P<0.05, data not shown. As for the experimental part:
Treatment of NEK2-overexpressing MM cells with chemotherapeutic drugs. To determine the role of NEK2 in cancer drug-resistance, ARK, KMS28PE, OCI-MY5, H1299, and MCF7 cell lines were transfected with NEK2-cDNA to overexpress NEK2 by lentivirus expression vector system. 1×10^6 cells were treated with bortezomib at 5 nM for 48 hours in the cultures. Cell proliferation was evaluated by cell counting with a hemocytometer, and dead cells were determined by trypan blue staining, from which dead-cell fraction was calculated. Untreated cells and empty-vector (EV)-transfected cells with or without drug-treatment were used as controls.
To determine whether NEK2 over-expression is sufficient to confer drug-resistance in cancer cells, NEK2-transfected ARP1, KMS28PE, H1299, MCF7, and MDA231 cells were then treated with bortezomib at the dose of 4, 8, and 16 nM bortezomib for 48 hours and cell death was evaluated. EV-transfected cells with or without bortezomib served as controls.

Assay [9] has as its system 5TGM1 cells. Put plainly: Bortezomib treatment of bortezomib-resistant and wild-type 5TGM1 cells. Format: cell-based.
Where [10] appears, read: KP372-1 1 μM and 5 μM, 5 days, both vel-R and sensitive lines.
Where [11] appears, read: NEK2-transfected and EV control cells.

Results on four compounds are retold here after patent publication US20120178089A1, “MATERIALS AND METHODS FOR THE IDENTIFICATION OF DRUG-RESISTANT CANCERS AND TREATMENT OF SAME” (priority 2009, published 2012).

“Also recorded” adds a separate entry of the source.

Chain of Purified recombinant NEK2 kinase protein (P51955 whole entry): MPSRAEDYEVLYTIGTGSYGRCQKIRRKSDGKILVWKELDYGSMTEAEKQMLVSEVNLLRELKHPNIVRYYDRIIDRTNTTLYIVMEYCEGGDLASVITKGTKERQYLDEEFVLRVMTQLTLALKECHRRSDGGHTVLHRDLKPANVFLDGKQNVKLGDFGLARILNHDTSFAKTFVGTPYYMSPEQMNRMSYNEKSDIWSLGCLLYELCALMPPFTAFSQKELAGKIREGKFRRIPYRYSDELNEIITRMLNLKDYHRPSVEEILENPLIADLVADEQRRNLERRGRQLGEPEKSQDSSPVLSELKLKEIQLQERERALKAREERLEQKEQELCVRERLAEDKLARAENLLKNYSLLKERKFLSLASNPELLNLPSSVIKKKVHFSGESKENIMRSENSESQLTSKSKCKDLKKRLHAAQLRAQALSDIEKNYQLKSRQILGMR

With `O=C1c2ccccc2-c2nc3nnnn3nc21.O=C1c2ccccc2-c2nn3nnnc3nc21` [KP372-1], the cell death result in assay [1] (setting [10]) was “cell death”; in [3] (setting [11]) it was “induced significantly cell death; also recorded: induced cell growth inhibition and death”. The growth inhibition result was “significant growth inhibition” in assay [1] (setting [10]); “induced significantly cell death and growth inhibition” in [3] (setting [11]). Further, the NEK2 expression entry is “significantly inhibits NEK2 expression” in assay [2] and “inhibits NEK2 expression” in [2] (listed as NI-2). In addition, the “anti-proliferative and apoptotic activity, NEK2-transfected versus EV control cells” value in [3] was “stronger anti-proliferative and apoptotic activity in the NEK2-transfected cells than the EV control cells”. Further, the “tumor burden (tumor volumes)” value in assay [4] (P<0.05) is reported as “reduced tumor burden”. Also, the “mouse survival, 5TGM1-DR mice” value in assay [4] (KP372-1 0.8 mg/kg, 3 times/week, s.c, P<0.01) is “able to overcome drug resistance and extend mouse survival”. The “growth of 5TGM1 tumors compared with untreated control” value in [4] (NI-2 0.8 mg/kg 3 times/week sc, bortezomib 1 mg/kg 2 times/week sc, start 1 week after injection, P<0.05) was “significantly inhibited the growth of 5TGM1 tumors”. In [5], the IC50 came to 67 nM.
As for `CC(C)C[C@H](NC(=O)[C@H](Cc1ccccc1)NC(=O)c1cnccn1)B(O)O` [bortezomib], the “cell death in drug-resistant cells compared with parental controls” value in assay [1] (bortezomib treatment) was “significantly less growth inhibition and cell death”. Besides, the “growth inhibition in drug-resistant cells compared with parental controls” value in assay [1] (bortezomib treatment) is listed as “significantly less growth inhibition”. The IC50 came to 25.8 nM in assay [6] (ARP-1, bortezomib-resistant ARP1 cells); 7.47 nM in assay [6] (ARP-1, parental ARP1 cells); 4.75 nM in [7] (RPMI-8226, parental RPMI8226 cells); 250 nM in assay [7] (bortezomib-resistant RPMI8226 cells); 250 nM in [9] (5TGM1, 5TGM1-R (bortezomib-resistant)); 5.26 nM in assay [9] (5TGM1, wild-type 5TGM1 cells (5TGM1-WT)). For the same compound, the “tumor burden (tumor volumes)” value in assay [4] (P<0.05) is given as “reduced tumor burden”. Also, the “growth inhibition in NEK2-transfected cells compared with EV-transfected controls” value in assay [8] (8 nM) is “significantly less growth inhibition”.
With `COc1cccc2c1C(=O)c1c(O)c3c(c(O)c1C2=O)C[C@@](O)(C(=O)CO)C[C@@H]3O[C@H]1C[C@H](N)[C@H](O)[C@H](C)O1` [doxorubicin], in assay [8] (100 nM), the “growth inhibition in NEK2-transfected cells compared with EV-transfected controls” value is recorded as “significantly less growth inhibition” and the “cell death in NEK2-transfected cells compared with EV-transfected controls” value is “significantly less”.
For `COc1cc([C@@H]2c3cc4c(cc3[C@@H](O[C@@H]3O[C@@H]5CO[C@@H](C)O[C@H]5[C@H](O)[C@H]3O)[C@H]3COC(=O)[C@H]23)OCO4)cc(OC)c1O` [etoposide], in that order: “significantly less growth inhibition” and “significantly less”.
